Reference: ChEMBL document CHEMBL4017493, “Peptide Half-Life Extension: Divalent, Small-Molecule Albumin Interactions Direct the Systemic Properties of Glucagon-Like Peptide 1 (GLP-1) Analogues” (J Med Chem, 2017)
Calls of active or inactive are those of the source. The calls are words filed in the database; no cut-off is given here.

Experiments:
Mus musculus [1] = assay: Antiobesity activity in NMRI mouse assessed as reduction in cumulative food intake at 10 nmol/ml, sc measured up to 20 hrs; format: functional, organism-based
[2] = Induction of self aggregation in pH 7.4 PBS buffer assessed as retention volume by size exclusion chromatographic method
Albumin = Albumin (Homo sapiens, UniProt P02768); assay: Binding affinity to human serum albumin by SPR analysis; format: ADME; conditions: isolated protein
Albumin, sequence (P02768 whole entry): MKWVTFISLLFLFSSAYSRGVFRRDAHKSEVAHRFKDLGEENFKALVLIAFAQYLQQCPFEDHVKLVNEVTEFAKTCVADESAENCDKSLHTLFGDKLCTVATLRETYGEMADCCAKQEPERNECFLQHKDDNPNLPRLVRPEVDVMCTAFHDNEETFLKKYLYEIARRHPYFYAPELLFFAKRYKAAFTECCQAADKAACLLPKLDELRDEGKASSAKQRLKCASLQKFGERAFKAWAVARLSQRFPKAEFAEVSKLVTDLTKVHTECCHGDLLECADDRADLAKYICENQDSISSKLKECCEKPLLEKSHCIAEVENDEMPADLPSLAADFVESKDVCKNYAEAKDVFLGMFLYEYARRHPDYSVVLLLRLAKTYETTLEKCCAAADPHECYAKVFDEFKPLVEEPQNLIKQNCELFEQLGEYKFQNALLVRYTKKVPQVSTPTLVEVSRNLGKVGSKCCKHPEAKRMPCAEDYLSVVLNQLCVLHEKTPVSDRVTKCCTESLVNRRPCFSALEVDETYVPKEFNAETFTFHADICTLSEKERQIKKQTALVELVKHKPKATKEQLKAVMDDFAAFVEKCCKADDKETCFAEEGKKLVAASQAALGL

[3] = Tmax in C57Bl/6 mouse plasma at 10 nmol/ml, sc; format: ADME
Mus musculus [4] = assay: Antiobesity activity in NMRI mouse assessed as reduction in acute food intake at 10 nmol/ml, sc measured up to 20 hrs; format: functional, organism-based
Mus musculus [5] = assay: Antidiabetic activity in NMRI mouse assessed as blood glucose AUC (0 to 120 mins) at 10 nmol/ml, sc administered 45 mins prior to glucose challenge by OGTT (reference value: 1725 +/- 257 mmol/L); format: functional, organism-based; parameters: dose 10 nmol/ml, time < 2 hr
[6] = Half life in C57Bl/6 mouse plasma at 10 nmol/ml, sc; format: ADME
[7] = Half life in iv dosed human; format: ADME, organism-based; conditions: in vivo
Mus musculus [8] = assay: Antiobesity activity in NMRI mouse assessed as food intake at 10 nmol/ml, sc measured after 20 hrs (reference value: 3.51 +/- 0.49 g); format: functional
[9] = Induction of self aggregation in pH 7.4 PBS buffer assessed as supramolecular hydrodynamic radii at 1 mg/ml by dynamic light scattering method
[10] = Induction of monodisperse self aggregation in pH 7.4 PBS buffer by dynamic light scattering method

PB (Albumin)	SMILES	Activity (Mus musculus [1])	Vr [2] [mL]	further results
Dose-dependent effect	CC[C@H](C)[C@H](NC(=O)[C@H](Cc1ccccc1)NC(=O)[C@H](CCC(=O)O)NC(=O)[C@H](CCCCNC(=O)COc1ccc(-c2ccc(F)cc2F)cc1C(=O)O)NC(=O)[C@H](C)NC(=O)[C@H](C)NC(=O)[C@H](CCC(N)=O)NC(=O)CNC(=O)[C@H](CCC(=O)O)NC(=O)[C@H](CC(C)C)NC(=O)[C@H](Cc1ccc(O)cc1)NC(=O)[C@H](CO)NC(=O)[C@H](CO)NC(=O)[C@@H](NC(=O)[C@H](CC(=O)O)NC(=O)[C@H](CO)NC(=O)[C@@H](NC(=O)[C@H](Cc1ccccc1)NC(=O)[C@@H](NC(=O)CNC(=O)[C@H](CCC(=O)O)NC(=O)[C@H](C)NC(=O)[C@@H](N)Cc1cnc[nH]1)[C@@H](C)O)[C@@H](C)O)C(C)C)C(=O)N[C@@H](C)C(=O)N[C@@H](Cc1c[nH]c2ccccc12)C(=O)N[C@@H](CC(C)C)C(=O)N[C@H](C(=O)N[C@@H](CCCNC(=N)N)C(=O)NCC(=O)N[C@@H](CCCNC(=N)N)C(=O)NCC(=O)O)C(C)C	inactive		
Dose-dependent effect	CC[C@H](C)[C@H](NC(=O)[C@H](Cc1ccccc1)NC(=O)[C@H](CCC(=O)O)NC(=O)[C@H](CCCCNC(=O)CC[C@H](NC(=O)Cc1c(C)n(C(=O)c2ccc(Cl)cc2)c2ccc(OC)cc12)C(=O)O)NC(=O)[C@H](C)NC(=O)[C@H](C)NC(=O)[C@H](CCC(N)=O)NC(=O)CNC(=O)[C@H](CCC(=O)O)NC(=O)[C@H](CC(C)C)NC(=O)[C@H](Cc1ccc(O)cc1)NC(=O)[C@H](CO)NC(=O)[C@H](CO)NC(=O)[C@@H](NC(=O)[C@H](CC(=O)O)NC(=O)[C@H](CO)NC(=O)[C@@H](NC(=O)[C@H](Cc1ccccc1)NC(=O)[C@@H](NC(=O)CNC(=O)[C@H](CCC(=O)O)NC(=O)[C@H](C)NC(=O)[C@@H](N)Cc1cnc[nH]1)[C@@H](C)O)[C@@H](C)O)C(C)C)C(=O)N[C@@H](C)C(=O)N[C@@H](Cc1c[nH]c2ccccc12)C(=O)N[C@@H](CC(C)C)C(=O)N[C@H](C(=O)N[C@@H](CCCNC(=N)N)C(=O)NCC(=O)N[C@@H](CCCNC(=N)N)C(=O)NCC(=O)O)C(C)C	inactive	6.8 to 16	Tmax [3]: 30 min; Activity (Mus musculus [4]): inactive; AUC (Mus musculus [5]): 614 mmol·min/L; half-life [6]: 55 min
Dose-dependent effect	CC[C@H](C)[C@H](NC(=O)[C@H](Cc1ccccc1)NC(=O)[C@H](CCC(=O)O)NC(=O)[C@H](CCCCNC(=O)[C@H](CCCNC(=O)COc1ccc(-c2ccc(F)cc2F)cc1C(=O)O)NC(=O)CC[C@H](NC(=O)Cc1c(C)n(C(=O)c2ccc(Cl)cc2)c2ccc(OC)cc12)C(=O)O)NC(=O)[C@H](C)NC(=O)[C@H](C)NC(=O)[C@H](CCC(N)=O)NC(=O)CNC(=O)[C@H](CCC(=O)O)NC(=O)[C@H](CC(C)C)NC(=O)[C@H](Cc1ccc(O)cc1)NC(=O)[C@H](CO)NC(=O)[C@H](CO)NC(=O)[C@@H](NC(=O)[C@H](CC(=O)O)NC(=O)[C@H](CO)NC(=O)[C@@H](NC(=O)[C@H](Cc1ccccc1)NC(=O)[C@@H](NC(=O)CNC(=O)[C@H](CCC(=O)O)NC(=O)[C@H](C)NC(=O)[C@@H](N)Cc1cnc[nH]1)[C@@H](C)O)[C@@H](C)O)C(C)C)C(=O)N[C@@H](C)C(=O)N[C@@H](Cc1c[nH]c2ccccc12)C(=O)N[C@@H](CC(C)C)C(=O)N[C@H](C(=O)N[C@@H](CCCNC(=N)N)C(=O)NCC(=O)N[C@@H](CCCNC(=N)N)C(=O)NCC(=O)O)C(C)C	Active	6.6	Activity (Mus musculus [8]): 1.62 g; Tmax [3]: 240 min; AUC (Mus musculus [5]): 642 mmol·min/L; Activity [9]: 21.6 nm; Activity [10]: Active; half-life [6]: 299 min

More lines, now with the values behind:

SMILES	PB (Albumin)	Activity (Mus musculus [1])	Vr [2] [mL]	further results
CC[C@H](C)[C@H](NC(=O)[C@H](Cc1ccccc1)NC(=O)[C@H](CCC(=O)O)NC(=O)[C@H](CCCCNC(=O)COCCOCCNC(=O)[C@H](CCCNC(=O)COc1ccc(-c2ccc(F)cc2F)cc1C(=O)O)NC(=O)CC[C@H](NC(=O)Cc1c(C)n(C(=O)c2ccc(Cl)cc2)c2ccc(OC)cc12)C(=O)O)NC(=O)[C@H](C)NC(=O)[C@H](C)NC(=O)[C@H](CCC(N)=O)NC(=O)CNC(=O)[C@H](CCC(=O)O)NC(=O)[C@H](CC(C)C)NC(=O)[C@H](Cc1ccc(O)cc1)NC(=O)[C@H](CO)NC(=O)[C@H](CO)NC(=O)[C@@H](NC(=O)[C@H](CC(=O)O)NC(=O)[C@H](CO)NC(=O)[C@@H](NC(=O)[C@H](Cc1ccccc1)NC(=O)[C@@H](NC(=O)CNC(=O)[C@H](CCC(=O)O)NC(=O)[C@H](C)NC(=O)[C@@H](N)Cc1cnc[nH]1)[C@@H](C)O)[C@@H](C)O)C(C)C)C(=O)N[C@@H](C)C(=O)N[C@@H](Cc1c[nH]c2ccccc12)C(=O)N[C@@H](CC(C)C)C(=O)N[C@H](C(=O)N[C@@H](CCCNC(=N)N)C(=O)NCC(=O)N[C@@H](CCCNC(=N)N)C(=O)NCC(=O)O)C(C)C		Active		
CC[C@H](C)[C@H](NC(=O)[C@H](Cc1ccccc1)NC(=O)[C@H](CCC(=O)O)NC(=O)[C@H](CCCCNC(=O)COCCOCCNC(=O)COc1ccc(-c2ccc(F)cc2F)cc1C(=O)O)NC(=O)[C@H](C)NC(=O)[C@H](C)NC(=O)[C@H](CCC(N)=O)NC(=O)CNC(=O)[C@H](CCC(=O)O)NC(=O)[C@H](CC(C)C)NC(=O)[C@H](Cc1ccc(O)cc1)NC(=O)[C@H](CO)NC(=O)[C@H](CO)NC(=O)[C@@H](NC(=O)[C@H](CC(=O)O)NC(=O)[C@H](CO)NC(=O)[C@@H](NC(=O)[C@H](Cc1ccccc1)NC(=O)[C@@H](NC(=O)CNC(=O)[C@H](CCC(=O)O)NC(=O)[C@H](C)NC(=O)[C@@H](N)Cc1cnc[nH]1)[C@@H](C)O)[C@@H](C)O)C(C)C)C(=O)N[C@@H](C)C(=O)N[C@@H](Cc1c[nH]c2ccccc12)C(=O)N[C@@H](CC(C)C)C(=O)N[C@H](C(=O)N[C@@H](CCCNC(=N)N)C(=O)NCC(=O)N[C@@H](CCCNC(=N)N)C(=O)NCC(=O)O)C(C)C		inactive		
CC[C@H](C)[C@H](NC(=O)[C@H](Cc1ccccc1)NC(=O)[C@H](CCC(=O)O)NC(=O)[C@H](CCCCN)NC(=O)[C@H](C)NC(=O)[C@H](C)NC(=O)[C@H](CCC(N)=O)NC(=O)CNC(=O)[C@H](CCC(=O)O)NC(=O)[C@H](CC(C)C)NC(=O)[C@H](Cc1ccc(O)cc1)NC(=O)[C@H](CO)NC(=O)[C@H](CO)NC(=O)[C@@H](NC(=O)[C@H](CC(=O)O)NC(=O)[C@H](CO)NC(=O)[C@@H](NC(=O)[C@H](Cc1ccccc1)NC(=O)[C@@H](NC(=O)CNC(=O)[C@H](CCC(=O)O)NC(=O)[C@H](C)NC(=O)[C@@H](N)Cc1c[nH]cn1)[C@@H](C)O)[C@@H](C)O)C(C)C)C(=O)N[C@@H](C)C(=O)N[C@@H](Cc1c[nH]c2ccccc12)C(=O)N[C@@H](CC(C)C)C(=O)N[C@H](C(=O)N[C@@H](CCCNC(=N)N)C(=O)NCC(=O)N[C@@H](CCCNC(=N)N)C(=O)NCC(=O)O)C(C)C			14.1	
CC[C@H](C)[C@H](NC(=O)[C@H](Cc1ccccc1)NC(=O)[C@H](CCC(=O)O)NC(=O)[C@H](CCCCNC(=O)COc1ccc(-c2ccccc2)cc1C(=O)O)NC(=O)[C@H](C)NC(=O)[C@H](C)NC(=O)[C@H](CCC(N)=O)NC(=O)CNC(=O)[C@H](CCC(=O)O)NC(=O)[C@H](CC(C)C)NC(=O)[C@H](Cc1ccc(O)cc1)NC(=O)[C@H](CO)NC(=O)[C@H](CO)NC(=O)[C@@H](NC(=O)[C@H](CC(=O)O)NC(=O)[C@H](CO)NC(=O)[C@@H](NC(=O)[C@H](Cc1ccccc1)NC(=O)[C@@H](NC(=O)CNC(=O)[C@H](CCC(=O)O)NC(=O)[C@H](C)NC(=O)[C@@H](N)Cc1cnc[nH]1)[C@@H](C)O)[C@@H](C)O)C(C)C)C(=O)N[C@@H](C)C(=O)N[C@@H](Cc1c[nH]c2ccccc12)C(=O)N[C@@H](CC(C)C)C(=O)N[C@H](C(=O)N[C@@H](CCCNC(=N)N)C(=O)NCC(=O)N[C@@H](CCCNC(=N)N)C(=O)NCC(=O)O)C(C)C			9.8 to 16	
CC[C@H](C)[C@H](NC(=O)[C@H](Cc1ccccc1)NC(=O)[C@H](CCC(=O)O)NC(=O)[C@H](CCCCN)NC(=O)[C@H](C)NC(=O)[C@H](C)NC(=O)[C@H](CCC(N)=O)NC(=O)CNC(=O)[C@H](CCC(=O)O)NC(=O)[C@H](CC(C)C)NC(=O)[C@H](Cc1ccc(O)cc1)NC(=O)[C@H](CO)NC(=O)[C@H](CO)NC(=O)[C@@H](NC(=O)[C@H](CC(=O)O)NC(=O)[C@H](CO)NC(=O)[C@@H](NC(=O)[C@H](Cc1ccccc1)NC(=O)[C@@H](NC(=O)CNC(=O)[C@H](CCC(=O)O)NC(=O)[C@H](C)NC(=O)[C@H](Cc1cnc[nH]1)NC(=O)[C@H](CCCNC(=N)N)NC(=O)[C@H](CCC(=O)O)NC(=O)[C@H](Cc1ccccc1)NC(=O)[C@H](CCC(=O)O)NC(=O)[C@H](CC(=O)O)NC(=O)[C@@H](N)Cc1cnc[nH]1)[C@@H](C)O)[C@@H](C)O)C(C)C)C(=O)N[C@@H](C)C(=O)N[C@@H](Cc1c[nH]c2ccccc12)C(=O)N[C@@H](CC(C)C)C(=O)N[C@H](C(=O)N[C@@H](CCCCN)C(=O)NCC(=O)N[C@@H](CCCNC(=N)N)C(N)=O)C(C)C				half-life [7]: < 2 min
